Reference: US20260176253A1 (priority 2021, published 2026)

Assays:
[1] = system: rat cortical neurons; assay: Neurite outgrowth in primary neuronal cultures assay; type: cell-based; set-up: key: A: Statistically significant mean increase as a percent of DMSO control at 10 μM or less; B: No statistically significant mean increase as a percent of DMSO control at 10 μM or less; settings: 72h, vs DMSO control, 10 μM or less
Excerpt: Neurite Outgrowth Assay. Neurite Outgrowth in Primary Neuronal Cultures Assay. Changes in the pattern of neurite outgrowth have been implicated in psychiatric and neurodegenerative disorders as well as traumatic injuries. The discovery of new compounds that can positively affect neuritogenesis are important for developing new therapeutics for neurological diseases. Measurement of neurite outgrowth of rat cortical neurons using an automated image-based assay was used to determine the neuroplastic effects of the compounds of the present disclosure. The neurite outgrowth assay was performed at Neurofit SAS (France) as described below.
Pregnant Wistar rats (Janvier; France) were used for the study. They were delivered 6 days before their use. Upon arrival at Neurofit animal facility, they were housed one per cage and maintained in a room with controlled temperature (21-22° C.) and a reversed light-dark cycle (12 h/12h; lights on: 17:30-05:30; lights off: 05:30-17:30) with food and water available ad libitum.
Female Wistar rats of 17 days gestation were killed by cervical dislocation and the fetuses were removed from the uterus. Their brains were placed in ice-cold medium of Leibovitz (L15, Gibco, Fisher bioblock, France). Cortices were dissected and meninges were carefully removed. The cortical neurons were dissociated by trypsinization for 30 min at 37° C. (trypsin-EDTA, Gibco) in presence of 0.1 mg/ml DNAse I (Roche, France). The reaction was stopped by addition of Dulbecco's Modified Eagle Medium (DMEM; Gibco) with 10% of fetal bovine serum (FBS; Gibco). The suspension was triturated with a 10-ml pipette and using a needle syringe 21G and centrifuged at 350×g for 10 min at room temperature. The pellet of dissociated cells was resuspended in a medium consisting of Neurobasal (Gibco) supplemented with 2% B27 supplement (Gibco), 0.5 mM L-Glutamine (Gibco), an antibiotic-antimicotic mixture. Viable cells were counted in a Neubauer cytometer using the trypan blue exclusion test (Sigma). Cells were seeded at a density of 10000 cells per well in 96-well plate (Costar) precoated with poly-L-lysine. Test compound at different concentrations were added to the cultures. Donepezil (positive control) was tested at 250 nM.
After 72h (3 days) of plating, cultures were fixed with paraformaldehyde in PBS (4%, Sigma) for 30 min at 4° C. Then, cells were successively permeabilized with 0.1% Triton X100 for 30 min, saturated with PBS containing 3% of BSA and were incubated 1 h with anti-beta III tubulin antibody (Sigma) at 1/10 000 in PBS containing 0.5% of BSA. Cells were washed three times with PBS containing 0.5% of BSA, and they were incubated 1 h with goat anti-mouse antibody coupled with AF488 (Invitrogen A11001) diluted at 1/1000 in PBS containing 0.5% of BSA. Finally, nuclei were staining with DAPI 1 mg/ml at 1/1000 in PBS containing 0.5% of BSA. After rinsing with PBS, the plate was filmed and neurite networks were examined and analyzed using High-Content Screening (CellInsight, Thermo Scientific). The average number of neurites per neuron and the average total length of neurites per neuron were the main parameters analyzed. Analysis of data was performed using analysis of variance (ANOVA). The Fisher's Protected Least Significant Difference test was used for multiple comparisons. A p value ≤0.05 was considered significant. The software used is StatView 5.0 from SAS Institut.

[2] = target: T1, 5-HT2A (Homo sapiens, UniProt P28223); assay: Serotonin 5-HT2A in vitro cellular IPOne agonism assay (HTRF); type: cell-based; set-up: host or cells: CHO-K1; settings: CHO-K1 cells, 60 min
T1 sequence (P28223 whole entry): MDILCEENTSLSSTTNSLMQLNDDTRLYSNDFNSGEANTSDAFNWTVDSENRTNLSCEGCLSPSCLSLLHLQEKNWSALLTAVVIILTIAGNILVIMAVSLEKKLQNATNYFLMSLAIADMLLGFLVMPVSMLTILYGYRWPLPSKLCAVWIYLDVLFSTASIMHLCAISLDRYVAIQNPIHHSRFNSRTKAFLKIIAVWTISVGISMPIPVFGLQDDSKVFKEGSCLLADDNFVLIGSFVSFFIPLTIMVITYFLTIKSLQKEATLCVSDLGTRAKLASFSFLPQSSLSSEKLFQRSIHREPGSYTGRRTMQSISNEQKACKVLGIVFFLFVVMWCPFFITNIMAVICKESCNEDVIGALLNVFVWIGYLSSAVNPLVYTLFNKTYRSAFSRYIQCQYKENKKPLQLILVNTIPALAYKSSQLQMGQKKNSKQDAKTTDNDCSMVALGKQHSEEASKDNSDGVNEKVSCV
Protocol: Serotonin 5-HT2AIn Vitro Cellular IPOne Agonism Assay. The 5-HT2AIPOne HTRF assay was performed at Epics Therapeutics S. A. (Belgium, FAST-0505I) using conventional methods. Briefly, CHO—K1 cells expressing human recombinant 5-HT2A receptor grown to mid-log phase in culture media without antibiotics were detached with PBS-EDTA, centrifuged, and resuspended in medium without antibiotics buffer. 20,000 cells were distributed in a 96 well plate and incubated overnight at 37° C. with 5% Co2.
For agonist testing, the medium was removed and 20 μl of assay buffer plus 20 μl of test compound or reference agonist were added in each well. The plate was incubated for 60 min. at 37° C. with 5% CO2.
(§1) After addition of the lysis buffer containing IP1-d2 and anti-IP1 cryptate detection reagents, plates were incubated 1-hour at room temperature, and fluorescence ratios were measured according to the manufacturer specification, with the HTRF kit.

[3] = target: T1, 5-HT2A; assay: Serotonin 5-HT2A in vitro radioligand binding competition assay ([3H]-DOI); set-up: purchased Epics Therapeutics S. A. (Belgium), contract assay FAST-0505B; host or cells: membrane extracts; settings: [3H]-DOI competition, membrane extracts; read-out: 5HT2A R[…] ACTIVITY
Protocol: Serotonin 5-HT2AIn Vitro Radioligand Binding Competition Assay. The 5-HT2A radioligand binding competition assay was performed at Epics Therapeutics S. A. (Belgium, FAST-0505B) using conventional methods. Briefly, competition binding is performed in duplicate in the wells of a 96 well plate (Master Block, Greiner, 786201) containing binding buffer (optimized for each receptor), membrane extracts (amount of protein/well optimized for each receptor), radiotracer [3H]-DOI (final concentration optimized for each receptor) and test compound. Nonspecific binding was determined by co-incubation with 200-fold excess of cold competitor. The samples were incubated in a final volume of 0.1 ml at a temperature and for a duration optimized for each receptor and then filtered over filter plates. Filters were washed six times with 0.5 ml of ice-cold washing buffer (optimized for each receptor) and 50 µl of Microscint 20 (Packard) were added in each well. The plates were incubated 15 min on an orbital shaker and then counted with a TopCount™ for 1 min/well.

[4] = target: T1, 5-HT2A; assay: Serotonin 5-HT2A in vitro cellular IPOne antagonism assay (HTRF); type: cell-based; set-up: host or cells: CHO-K1; settings: CHO-K1 cells, reference agonist a-Me-5HT
Protocol: Serotonin 5-HT2AIn Vitro Cellular IPOne Antagonism Assay. The 5-HT2AIPOne HTRF assay was performed at Epics Therapeutics S. A. (Belgium, FAST-0505I) in antagonism mode using conventional methods. Briefly, CHO—K1 cells expressing human recombinant 5-HT2A receptor grown to mid-log phase in culture media without antibiotics were detached with PBS-EDTA, centrifuged, and resuspended in medium without antibiotics buffer. 20,000 cells were distributed in a 96 well plate and incubated overnight at 37° C. with 5% Co2.
For antagonist testing, a reference agonist a-Me-5HT was added and fluorescence signal monitored for several minutes, followed by addition of 20 μl of assay buffer plus 20 μl of test compound or reference antagonist ketanserin, in each well. The plate was incubated for 60 min. at 37° C. with 5% CO2.
as §1

SMILES: COc1ccc2c3c([nH]c2c1)CCN1CCCC1C3 (centres unmarked) [Compound 1, 9-methoxy-1,2,3,5,6,7,12,12a-octahydropyrrolo[1′,2′:1,7]azepino[4,5-b]indole]
- INCREASE IN NEURITE BRANCHING [1]: B
- INCREASE IN NEURITE LENGTH [1]: B
- INCREASE IN NEURITE NUMBER [1]: B
- EC50 [2]: > 10 µM
- IC50 [3]: 1 to 10 µM

SMILES: COc1ccc2c3c([nH]c2c1)CC1CCCN1CC3 (centres unmarked) [Compound 2, 9-methoxy-1,2,3,5,6,11,12,12a-octahydropyrrolo[1′,2′:1,2]azepino[4,5-b]indole]
- INCREASE IN NEURITE BRANCHING [1]: A
- INCREASE IN NEURITE LENGTH [1]: A
- INCREASE IN NEURITE NUMBER [1]: B
- EC50 [2]: > 10 µM
- IC50 [3]: > 10 µM

SMILES: Cn1c2c(c3ccccc31)CCN1CCCC1C2 (centres unmarked) [Compound 3, 11-methyl-1,2,3,5,6,11,12,12a-octahydropyrrolo[1′,2′:1,2]azepino[4,5-b]indole]
- INCREASE IN NEURITE BRANCHING [1]: B
- INCREASE IN NEURITE LENGTH [1]: A
- INCREASE IN NEURITE NUMBER [1]: B
- EC50 [2]: 1 to 10 µM
- IC50 [4]: 0.101 to 1 µM
- IC50 [3]: 0.101 to 1 µM

SMILES: c1ccc2c3c([nH]c2c1)CC1CCCN1CC3 (centres unmarked) [Compound 4, 1,2,3,5,6,11,12,12a-octahydropyrrolo[1′,2′;1,2]azepino[4,5-b]indole]
- INCREASE IN NEURITE BRANCHING [1]: A
- INCREASE IN NEURITE LENGTH [1]: A
- INCREASE IN NEURITE NUMBER [1]: A
- EC50 [2]: 0.101 to 1 µM
- IC50 [4]: 0.101 to 1 µM
- IC50 [3]: 0.101 to 1 µM

SMILES: COc1cccc2[nH]c3c(c12)CC1CCCN1CC3 (centres unmarked) [Compound 5, 11-methoxy-1,2,3,5,6,7,12,12a-octahydropyrrolo[1′,2′:1,7]azepino[4,5-b]indole]
- INCREASE IN NEURITE BRANCHING [1]: B
- INCREASE IN NEURITE LENGTH [1]: A
- INCREASE IN NEURITE NUMBER [1]: B
- EC50 [2]: 1 to 10 µM
- IC50 [3]: 1 to 10 µM

SMILES: Cn1c2c(c3ccccc31)CC1CCCN1CC2 (centres unmarked) [Compound 6, 7-methyl-1,2,3,5,6,7,12,12a-octahydropyrrolo[1′,2′:1,7]azepino[4,5-b]indole]
- INCREASE IN NEURITE BRANCHING [1]: B
- INCREASE IN NEURITE LENGTH [1]: A
- INCREASE IN NEURITE NUMBER [1]: B
- EC50 [2]: > 10 µM
- IC50 [4]: 0.101 to 1 µM
- IC50 [3]: 0.101 to 1 µM

SMILES: c1ccc2c3c([nH]c2c1)CCN1CCCC1C3 (centres unmarked) [Compound 7, 1,2,3,5,6,7,12,12a-octahydropyrrolo[1′,2′:1,7]azepino[4,5-b]indole]
- INCREASE IN NEURITE BRANCHING [1]: A
- INCREASE IN NEURITE LENGTH [1]: A
- INCREASE IN NEURITE NUMBER [1]: A
- EC50 [2]: 1 to 10 µM
- IC50 [4]: 0.101 to 1 µM
- IC50 [3]: 0.101 to 1 µM

SMILES: FC(F)(F)c1ccc2c3c([nH]c2c1)CC1CCCN1CC3 (centres unmarked) [Compound 12, 9-(trifluoromethyl)-1,2,3,5,6,11,12,12a-octahydropyrrolo[1′,2′:1,2]azepino[4,5-b]indole]
- INCREASE IN NEURITE BRANCHING [1]: A
- INCREASE IN NEURITE LENGTH [1]: A
- INCREASE IN NEURITE NUMBER [1]: B
- EC50 [2]: > 10 µM
- IC50 [3]: 1 to 10 µM

SMILES: FC(F)(F)Oc1ccc2c3c([nH]c2c1)CC1CCCN1CC3 (centres unmarked) [Compound 13, 9-(trifluoromethoxy)-1,2,3,5,6,11,12,12a-octahydropyrrolo[1′,2′;1,2]azepino[4,5-b]indole]
- INCREASE IN NEURITE BRANCHING [1]: B
- INCREASE IN NEURITE LENGTH [1]: A
- INCREASE IN NEURITE NUMBER [1]: B
- EC50 [2]: > 10 µM
- IC50 [4]: 0.101 to 1 µM
- IC50 [3]: 1 to 10 µM

SMILES: COc1ccc2c3c([nH]c2c1)C[C@@H]1CCCN1CC3 [Compound 17, (S)-9-methoxy-1,2,3,5,6,11,12,12a-octahydropyrrolo[1′,2′:1,2]azepino[4,5-b]indole]
- INCREASE IN NEURITE BRANCHING [1]: A
- INCREASE IN NEURITE LENGTH [1]: A
- INCREASE IN NEURITE NUMBER [1]: A
- EC50 [2]: > 10 µM
- IC50 [4]: > 10 µM
- IC50 [3]: > 10 µM

SMILES: COc1ccc2c3c([nH]c2c1)C[C@H]1CCCN1CC3 [Compound 18, (R)-9-methoxy-1,2,3,5,6,11,12,12a-octahydropyrrolo[1′,2′:1,2]azepino[4,5-b]indole]
- INCREASE IN NEURITE BRANCHING [1]: A
- INCREASE IN NEURITE LENGTH [1]: A
- INCREASE IN NEURITE NUMBER [1]: A
- EC50 [2]: > 10 µM
- IC50 [4]: 0.101 to 1 µM
- IC50 [3]: > 10 µM

SMILES: c1ccc2c3c([nH]c2c1)C[C@@H]1CCCN1CC3 [Compound 19, (S)-1,2,3,5,6,11,12,12a-octahydropyrrolo[1′,2′:1,2]azepino[4,5-b]indole]
- INCREASE IN NEURITE BRANCHING [1]: A
- INCREASE IN NEURITE LENGTH [1]: A
- INCREASE IN NEURITE NUMBER [1]: A
- EC50 [2]: 0.101 to 1 µM
- IC50 [4]: 0.101 to 1 µM
- IC50 [3]: 0.101 to 1 µM
